“And” between values parts separate entries of the source, which are not always exact repeats. Equal entries are not always repeated.
Test: molar heat capacity at saturation pressure
Details: Crystal, Vacuum adiabatic calorimetry

CCCCn1cc[n+](C)c1.O=S(=O)([O-])C(F)(F)F [1-butyl-3-methylimidazolium trifluoromethanesulfonate]
Details | molar heat capacity
5.202 K | 1.664 J/K/mol
5.437 K | 1.901 J/K/mol
5.715 K | 2.221 J/K/mol
5.999 K | 2.57 J/K/mol
6.317 K | 2.999 J/K/mol
6.671 K | 3.523 J/K/mol
7.032 K | 4.097 J/K/mol
7.395 K | 4.732 J/K/mol
7.763 K | 5.393 J/K/mol
8.135 K | 6.123 J/K/mol
8.512 K | 6.893 J/K/mol
8.894 K | 7.698 J/K/mol
9.277 K | 8.558 J/K/mol
9.664 K | 9.444 J/K/mol
10.05 K | 10.36 J/K/mol
10.55 K | 11.59 J/K/mol
11.16 K | 13.11 J/K/mol
11.77 K | 14.7 J/K/mol
12.38 K | 16.35 J/K/mol
13 K | 18.04 J/K/mol
13.62 K | 19.77 J/K/mol
14.25 K | 21.58 J/K/mol
14.88 K | 23.41 J/K/mol
15.62 K | 25.59 J/K/mol
16.48 K | 28.21 J/K/mol
17.34 K | 30.75 J/K/mol
18.21 K | 33.27 J/K/mol
19.07 K | 35.79 J/K/mol
19.94 K | 38.35 J/K/mol
21.15 K | 41.92 J/K/mol
22.72 K | 46.46 J/K/mol
24.29 K | 51.02 J/K/mol
25.87 K | 55.46 J/K/mol
27.45 K | 59.71 J/K/mol
28.86 K | 63.39 J/K/mol
30.34 K | 67.25 J/K/mol
32.09 K | 71.61 J/K/mol
34 K | 76.13 J/K/mol
35.92 K | 80.4 J/K/mol
37.84 K | 84.48 J/K/mol
39.76 K | 88.4 J/K/mol
41.78 K | 92.42 J/K/mol
43.9 K | 96.53 J/K/mol
46.01 K | 100.5 J/K/mol
48.13 K | 104.3 J/K/mol
50.25 K | 108 J/K/mol
52.38 K | 111.5 J/K/mol
54.5 K | 114.9 J/K/mol
56.63 K | 118.1 J/K/mol
58.75 K | 121.2 J/K/mol
60.89 K | 124.2 J/K/mol
63.03 K | 127.2 J/K/mol
65.17 K | 130.1 J/K/mol
67.3 K | 133 J/K/mol
69.44 K | 135.8 J/K/mol
71.69 K | 138.7 J/K/mol
74.03 K | 141.6 J/K/mol
76.39 K | 144.5 J/K/mol
78.69 K | 147.6 J/K/mol and 147.7 J/K/mol
78.74 K | 147.4 J/K/mol
80.59 K | 149.7 J/K/mol
80.61 K | 149.7 J/K/mol
81.1 K | 150.1 J/K/mol
82.36 K | 151.6 J/K/mol
82.4 K | 151.6 J/K/mol
83.47 K | 152.9 J/K/mol
84.13 K | 153.6 J/K/mol
84.19 K | 153.7 J/K/mol
85.92 K | 155.7 J/K/mol
86 K | 155.7 J/K/mol
87.73 K | 157.6 J/K/mol
87.81 K | 157.6 J/K/mol
89.54 K | 159.5 J/K/mol
89.64 K | 159.6 J/K/mol
91.35 K | 161.5 J/K/mol
91.48 K | 161.6 J/K/mol
93.18 K | 163.4 J/K/mol
93.33 K | 163.6 J/K/mol
95.02 K | 165.5 J/K/mol
95.19 K | 165.6 J/K/mol
96.87 K | 167.3 J/K/mol
97.05 K | 167.5 J/K/mol
98.72 K | 169.2 J/K/mol
98.92 K | 169.4 J/K/mol
100.59 K | 171.1 J/K/mol
100.8 K | 171.4 J/K/mol
102.64 K | 173.1 J/K/mol
102.7 K | 173.3 J/K/mol
104.6 K | 175.1 J/K/mol
104.89 K | 175.5 J/K/mol
106.5 K | 177 J/K/mol
107.15 K | 177.7 J/K/mol
108.41 K | 178.9 J/K/mol
109.42 K | 179.9 J/K/mol
110.33 K | 180.8 J/K/mol
111.71 K | 182.1 J/K/mol
112.25 K | 182.6 J/K/mol
114.01 K | 184.4 J/K/mol
114.17 K | 184.5 J/K/mol
116.1 K | 186.5 J/K/mol
116.31 K | 186.8 J/K/mol
118.04 K | 189.9 J/K/mol
118.61 K | 190.7 J/K/mol
119.97 K | 192.6 J/K/mol
120.92 K | 192.7 J/K/mol
121.91 K | 193.4 J/K/mol
123.24 K | 193.9 J/K/mol
123.85 K | 194.3 J/K/mol
125.56 K | 195.3 J/K/mol
125.8 K | 195.5 J/K/mol
127.76 K | 196.9 J/K/mol
127.9 K | 197 J/K/mol
129.72 K | 198.4 J/K/mol
130.24 K | 198.8 J/K/mol
131.68 K | 200 J/K/mol
132.58 K | 200.7 J/K/mol
133.65 K | 201.6 J/K/mol
134.93 K | 202.7 J/K/mol
135.63 K | 203.2 J/K/mol
137.28 K | 204.7 J/K/mol
137.6 K | 204.9 J/K/mol
139.58 K | 206.5 J/K/mol
139.64 K | 206.6 J/K/mol
141.56 K | 208.3 J/K/mol
142 K | 208.7 J/K/mol
143.55 K | 210.1 J/K/mol
144.36 K | 210.9 J/K/mol
145.53 K | 211.9 J/K/mol
146.73 K | 213 J/K/mol
147.51 K | 213.7 J/K/mol
149.09 K | 215.2 J/K/mol
149.5 K | 215.5 J/K/mol
151.45 K | 217.4 J/K/mol
151.48 K | 217.4 J/K/mol
153.46 K | 219.3 J/K/mol
153.82 K | 219.6 J/K/mol
155.44 K | 221.2 J/K/mol
156.18 K | 221.9 J/K/mol
157.42 K | 223.1 J/K/mol
158.55 K | 224.2 J/K/mol
159.41 K | 225.1 J/K/mol
160.91 K | 226.5 J/K/mol
161.39 K | 226.9 J/K/mol
163.28 K | 228.8 J/K/mol
163.37 K | 228.9 J/K/mol
165.35 K | 230.9 J/K/mol
165.64 K | 231.1 J/K/mol
167.32 K | 232.8 J/K/mol
168 K | 233.4 J/K/mol
169.3 K | 234.8 J/K/mol
